Earlier results, collected in patent US20050249757A1, “Pharmaceutical cream formulations” (Glenmark Pharmaceuticals Limited, priority 2004, published 2005).

Legend:
rabbit skin = settings: described as practically nonirritating
human subjects = settings: 50 human subjects, total of 15 applications; manufacturer's brochure
macrophilin-12 (FKBP-12) = macrophilin-12 (FKBP-12) (Homo sapiens, UniProt P62942)
human T cells = settings: Th1-type and Th2-type cytokines

Sequence of macrophilin-12 (FKBP-12) (P62942 whole entry): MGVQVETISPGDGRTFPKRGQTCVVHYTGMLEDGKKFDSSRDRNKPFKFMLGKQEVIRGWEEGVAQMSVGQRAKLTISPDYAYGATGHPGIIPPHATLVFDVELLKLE

## CN1CCCC1=O [Pharmasolve, N-methyl-2-pyrrolidone]
Rabbit skin
  PII (skin irritation): 0.5
Human subjects
  Dermal irritation and sensitization in repeated insult patch test: neither a primary dermal irritant nor a sensitizer

## CC[C@@H]1/C=C(\C)C[C@H](C)C[C@H](OC)[C@H]2O[C@@](O)(C(=O)C(=O)N3CCCC[C@H]3C(=O)O[C@H](/C(C)=C/[C@@H]3CC[C@H](Cl)[C@H](OC)C3)[C@H](C)[C@@H](O)CC1=O)[C@H](C)C[C@@H]2OC [pimecrolimus, (1R,9S,12S,13R,14S,17R,18E,21 S,23S,24R,25S,27R)-12-[(1E)-2-{(1R,3R,4S)-4-chloro-3-methoxycyclohexyl}-1-methylvinyl]-17-ethyl-1,14-dihydroxy-23,25-dimethoxy-13,19,21,27-tetramethyl-11,28-dioxa-4-aza-tricyclo[22.3.1.04,9]octacos-18-ene-2,3,10,16-tetraone]
macrophilin-12 (FKBP-12)
  Binding affinity to macrophilin-12 (FKBP-12): high affinity
Human T cells
  Concentration inhibiting Interleukin-2, interferon gamma, Interleukin-4 and Interleukin-10 cytokine synthesis: nanomolar concentrations
